Assay results: paper PMC10996005, “Identification and Development of Cyclic Peptide Inhibitors of Hypoxia Inducible Factors 1 and 2 That Disrupt Hypoxia-Response Signaling in Cancer Cells” (Journal of the American Chemical Society, 2024)
Entries after “also recorded” stand apart in the source; their conditions may differ. Where a SMILES comes first, the peptide text is derived from it. [ ]: non-standard residue; d: D form. Phe(4-I) = N[C@@H](Cc1ccc(I)cc1)C(=O)O

Key:
HIF-1α/HIF-1β PPI = biological target: T1, HIF-1α/HIF-1β PPI (Homo sapiens, UniProt Q16665); test: Proximity-ligation assay (PLA) in DFX-treated HeLa cells; type: cell-based; settings: 50 μM compound vs DMSO
T1 construct: endogenous in cells; host or cells: HeLa
T1 sequence (Q16665 whole entry): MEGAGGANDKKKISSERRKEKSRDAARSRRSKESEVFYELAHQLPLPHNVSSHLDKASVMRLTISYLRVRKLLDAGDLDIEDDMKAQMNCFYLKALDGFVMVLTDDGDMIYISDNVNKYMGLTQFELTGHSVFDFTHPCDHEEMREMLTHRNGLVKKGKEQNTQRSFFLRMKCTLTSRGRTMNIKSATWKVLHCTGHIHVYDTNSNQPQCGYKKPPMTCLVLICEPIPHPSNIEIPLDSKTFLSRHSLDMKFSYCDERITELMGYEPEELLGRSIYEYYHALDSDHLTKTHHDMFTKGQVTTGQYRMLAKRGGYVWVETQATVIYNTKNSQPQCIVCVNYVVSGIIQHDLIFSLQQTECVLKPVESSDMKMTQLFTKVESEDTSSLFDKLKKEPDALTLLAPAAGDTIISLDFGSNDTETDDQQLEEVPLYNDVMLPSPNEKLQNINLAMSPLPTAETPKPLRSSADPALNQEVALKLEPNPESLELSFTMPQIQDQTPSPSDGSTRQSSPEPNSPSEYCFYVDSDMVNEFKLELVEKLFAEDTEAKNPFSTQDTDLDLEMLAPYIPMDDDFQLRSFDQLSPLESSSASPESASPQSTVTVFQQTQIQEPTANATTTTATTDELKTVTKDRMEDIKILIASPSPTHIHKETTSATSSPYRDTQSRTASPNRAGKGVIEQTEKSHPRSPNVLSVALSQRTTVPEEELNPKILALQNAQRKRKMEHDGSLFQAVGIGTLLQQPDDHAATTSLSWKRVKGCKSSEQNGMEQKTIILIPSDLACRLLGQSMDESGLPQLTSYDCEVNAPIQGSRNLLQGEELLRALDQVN
Experimental: We used a previously reported[26] proximity-ligation assay (PLA) to assess whether cyclo-CRLII(4-iodo)F disrupts the HIF-1α/HIF-1β PPI in cells. HeLa cells were treated with the hypoxia mimic desferrioxamine (DFX) and treated with either DMSO (control) or 50 μM of cyclo-CRLII(4-iodo)F; in the control-treated samples, we observed the red puncta associated with the PLA signal from the targeted PPI (Figure 6c, upper panels).
(§1) All reagents were purchased from Fisher Scientific or Sigma Aldrich UK unless specified otherwise.
(§2) Restriction enzymes and microbiology reagents were purchased from New England Biolabs Inc., Fisher Scientific (UK) or Promega (UK) and were used as directed by the manufacturer. Primers and oligonucleotides were synthesised by Integrated DNA Technologies (UK). DNA sequencing was carried out by Eurofins MWG Operon (Germany).
(§3) Construction of the RTHS and SICLOPPS library, screening, purification of recombinant HIF proteins, and the PLA was conducted as previously described in Miranda et al., J. Am. Chem. Soc., 2013, 135(28); […]
The labelled protein was separated from unreacted dye by elution through a PD minitrap G-25 column (GE healthcare). […] Extent of labelling was measured by the absorbance obtained using the UV-vis mode on a NanoDrop ND-1000 Spectrophotometer (NanoDrop Technologies, USA). […]

CAIX in HeLa cells = test: qPCR of CAIX in HeLa cells; type: cell-based; settings: hypoxic HeLa cells, vs DMSO-treated hypoxic cells
Experimental: The effect of our lead inhibitor on hypoxia-response signaling was measured by qPCR in cancer cell lines. Cells were treated with either 2 μM of an analogue of the HIF-2-specific inhibitor belzutifan, PT2399 (control), or 50 μM of cyclo-CRLII(4-iodo)F, incubated in hypoxia for 24 h, and the levels of the hypoxia-response genes CAIX([41],[42]) and VEGF([43]) were measured by qPCR. We observed a 51% drop in CAIX transcription and a 43% drop in VEGF transcription in hypoxic MCF-7 (breast cancer) cells treated with 50 μM of cyclo-CRLII(4-iodo)F versus hypoxic MCF-7 cells treated with DMSO only (Figure 6e). […] We also observed a 49% drop in CAIX expression in hypoxic HeLa (cervical cancer) cells treated with cyclo-CRLII(4-iodo)F (Figure S9b). […] We observed a 35% drop in HIF-2-driven VEGF transcription in 786-O cells treated with 50 μM of cyclo-CRLII(4-iodo)F compared to a 50% decrease in 786-O cells treated with PT2399.
Figure S9. (a) The effect of cyclo-CRLII(4-iodo)F on the viability of T-ReX-293 cells. […]
The Flp-In-HRE-eYFP cells were plated on 24-well plates at 80% confluency and incubated overnight under normoxic conditions. […] An equal amount of the supernatant from each treatment was plated on a 96-well plate, and the emission of eYFP was measured using a microplate reader. […]

HIF-2α PAS-B domain = biological target: T2, HIF-2α PAS-B domain (Homo sapiens, UniProt Q99814); test: MST binding to the PAS-B domain of HIF-2α; settings: MST KD ratio
T2 construct: made in house
T2 sequence (Q99814 240-350 limits assumed): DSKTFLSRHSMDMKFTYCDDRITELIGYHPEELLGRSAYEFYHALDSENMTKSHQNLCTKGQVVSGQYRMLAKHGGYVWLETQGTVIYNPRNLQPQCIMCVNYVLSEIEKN
Experimental: as §1, §2, §3
Protein labelling with MST dye
Protein was buffer exchanged from storage buffer into labelling buffer (0.1 M NaHCO3, pH 8.5) using a PD spintrap G-25 column (GE healthcare). The protein concentration was then adjusted to 20 µM.
The commercially sourced MST dye (NanoTemper) was prepared as a 470 µM solution in DMSO, which was then further diluted to 60 µM using labelling buffer. To the protein solution was added an equal volume of dye solution, and the labelling reaction was left for 1 hour in the dark at room temperature.
The labelled protein was separated from unreacted dye by elution through a PD minitrap G-25 column (GE healthcare). Labelled protein was then aliquoted and stored at -80 °C. Extent of labelling was measured by the absorbance obtained using the UV-vis mode on a NanoDrop ND-1000 Spectrophotometer (NanoDrop Technologies, USA).
Labelled protein was thawed on ice and diluted to 50 nM in assay buffer containing 50 mM Tris pH 8.0, 150 mM NaCl, 5% (v/v) glycerol, 1 mM TCEP and 0.05% TWEEN-20. The protein solution was then centrifuged at 12000 rpm for 15 minutes at 4 °C and left on ice. Compounds were prepared and serially diluted in DMSO at 10x assay concentration, before diluting to 2x assay concentration in assay buffer.
The 2x compound solutions were then mixed 1:1 (v/v) with 50 nM labelled protein solution and left to incubate for 1 hour at room temperature. Solutions were then loaded into Monolith NT.115 Premium Capillaries (NanoTemper) and placed in the sample tray. MST experiments were carried out

improvement in KD for HIF-2α PAS-B compared to the parent cyclic peptide (HIF-2α PAS-B domain): 6.5 fold
SMILES: CC[C@H](C)[C@@H]1NC(=O)[C@H](CC(C)C)NC(=O)[C@H](CCCNC(=N)N)NC(=O)[C@H](CS)NC(=O)[C@H](Cc2ccc(I)cc2)NC(=O)[C@H]([C@@H](C)CC)NC1=O [cyclo-CRLII(4-iodo)F] (cyclo(CRLII[Phe(4-I)]))
PLA signal (red puncta) of the HIF-1α/HIF-1β PPI (HIF-1α/HIF-1β PPI): red puncta are absent; also recorded: the red puncta were not observed
drop in CAIX expression (CAIX in HeLa cells): 49%
